From US9687552B2, “Association of poly(N-acryloylglycinamide) with at least one active principle” (CENTRE NATIONAL DE LA RECHERCHE SCIENTIFIQUE, priority 2012, dated 2017)

Tests used:
[1] = release of drug models from PAG hydrogel into physiological serum at 37° C. (UV spectrometry); assay type: physicochemical
Procedure: 60 mg of PAG polymer of molecular mass equal to 170 000 g/mol are placed in contact with 1 mil of physiological serum (6% by mass) in a small, hermetically scaled cylindrical flask and heated at 60° C. for a few minutes to obtain a clear, homogeneous solution, which is gelled by cooling.
The cycle is repeated twice to perfect the homogeneity of the gel.
10 mg of the compound chosen as drug model are added. The mixture is heated to have a homogeneous solution, which is left to cool to obtain the compound-gel system.
The flask is placed in a mobile incubator at 37° C. after having added on top of the gel formed 1 ml of physiological serum, into which the compound trapped in the hydrogel gradually diffuses. The receiving medium is then renewed at regular intervals and the compound that has diffused is evaluated quantitatively by UV spectrometry. The curve of gradual release is plotted as a percentage of the amount initially placed in the gel.

[2] = tested on: tissues and organs of the intraperitoneal cavity in mice; test: delivery of methylene blue from PAG hydrogel to tissues and organs of the intraperitoneal cavity in mice; assay type: in vivo
Procedure: The delivery of the dye from the charged hydrogel to the tissues and organs of the intraperitoneal cavity in mice is observed.
To do this, an isotonic solution of PAG (molar mass equal to about 176 000 g/mol, 6% by weight of PAG) containing methylene blue (4 ml of solution (20 mg of dye) per 16 ml of gel) formed at 60° C. conditioned is introduced into heated syringes to be injected rapidly at 45° C. through a 23-gauge needle in order to fill the intraperitoneal cavity of the mice.
The mice treated according to the regulatory procedures were sacrificed after 2 hours, 8 hours, 24 hours, 30 hours and 52 hours (two animals per point).
After opening the abdomen, the distributions of the blue color in the gel, the tissues and the organs were assessed visually and compared at the same times with those observed for the control mice which received by similar injection an isotonic solution of the same concentration of methylene blue.

SMILES	extent of release from the gel ([1]; 10 mg in PAG 170 000 g/mol gel, 6% by mass in physiological serum, 37° C.)	"burst" release as percentage of the amount initially placed in the gel ([1]; at 1 hour, 10 mg in PAG 170 000 g/mol gel, 6% by mass in physiological serum, 37° C.)	dissolution in the same medium without gel ([1]; physiological serum, without gel)	time after which the blue color totally disappeared ([2]; control mice: isotonic solution of the same concentration without PAG, intraperitoneal injection) [h]	time the gel, tissues and organs, especially the liver, remained colored ([2]; in isotonic PAG solution (about 176 000 g/mol, 6% by weight), injected at 45° C. intraperitoneally, mice)
CC(=O)[O-].CC(=O)[O-].[Co+2] [cobalt acetate]	gradual release until depletion is complete	less than 15%	dissolves instantaneously in its entirety		
CN(C)c1ccc2nc3ccc(=[N+](C)C)cc-3sc2c1 [methylene blue]				24	at least 52 hours
